# Data as given in US12083094B2, “Cannabinoid composition and methods of treatment using the same” (CANNPAL ANIMAL THERAPEUTICS LIMITED, priority 2018, dated 2024).
# Where “and” joins values, the source holds several entries; their conditions need not be identical. Equal values may be shown once.
# Assay: Blood sampling for THC and CBD plasma concentration after single oral dosing
# Settings: for concentration at 12 h: 12 hours post administration; for AUC: AUC for CBD concentration, canine
# Procedure: Two compositions, IVP1 and IVP2, were administered in varying amounts in the study.
# Dosage volumes were calculated prior to Day 0, to provide the target dosage in mg/kg bodyweight based on actual dog bodyweights and IVP active ingredient composition based on the Certificates of Analysis.
# Blood samples of approximately 5 mL were collected at each drug concentration sampling time-point from each animal using 22-gauge needles and 5 mL syringes.
# The data points from Table 4 and Table 5 were also plotted and these graphs are set out in FIGS. 1-16.
smiles,measurement,setting,value
"C=C(C)[C@@H]1CCC(C)=C[C@H]1c1c(O)cc(CCCCC)cc1O [CBD, Cannabidiol]",concentration at 32 h,"dog, plasma, oral, CBD concentration in blood plasma, mean of dogs 5-8, 0.24 mg/kg CBD + 0.12 mg/kg THC oral once, 32 h",0.34 ng/mL
same,concentration at 48 h,"dog, plasma, oral, CBD concentration in blood plasma, mean of dogs 5-8, 0.24 mg/kg CBD + 0.12 mg/kg THC oral once, 48 h",0.13 ng/mL
same,concentration at 72 h,"dog, plasma, oral, CBD concentration in blood plasma, mean of dogs 5-8, 0.24 mg/kg CBD + 0.12 mg/kg THC oral once, 72 h",0 ng/mL
same,concentration at 16 h,"dog, plasma, oral, CBD concentration recorded in subjects, 16 hours post administration",0.26 ng/mL
same,concentration at 32 h,"dog, plasma, oral, CBD concentration recorded in subjects, 32 hours post administration",0.28 ng/mL
same,concentration at 12 h,"dog, plasma, oral, highest level of CBD recorded",0.88 ng/mL
same,concentration at 12 h,"dog, plasma, oral, lowest level of CBD recorded in a subject",0.23 ng/mL
same,half-life,"dog, plasma, po",12.6 h
same,AUC,"dog, plasma, po, 0.12 mg/kg, 0.12 mg/kg CBD in combination with 0.24 mg/kg THC",30 to 50 ng·h/mL
same,Cmax,"dog, plasma, po, 0.24 mg/kg",5 to 69 ng/mL
same,AUC,"dog, plasma, po, 0.24 mg/kg, 0.24 mg/kg CBD in combination with 0.12 mg/kg THC",95 to 110 ng·h/mL
same,CBD concentration in blood plasma,"individual dogs 1-4, 0.12 mg/kg CBD + 0.24 mg/kg THC oral once, 0 h",0 ng/mL
same,CBD concentration in blood plasma,"individual dogs 1-4, 0.12 mg/kg CBD + 0.24 mg/kg THC oral once, 0.67 h",15.60 ng/mL and 18.10 ng/mL and 5.26 ng/mL and 10.10 ng/mL
same,CBD concentration in blood plasma,"individual dogs 1-4, 0.12 mg/kg CBD + 0.24 mg/kg THC oral once, 1 h",12.00 ng/mL and 13.60 ng/mL and 5.99 ng/mL and 13.10 ng/mL
same,CBD concentration in blood plasma,"individual dogs 1-4, 0.12 mg/kg CBD + 0.24 mg/kg THC oral once, 1.5 h",7.99 ng/mL and 9.07 ng/mL and 9.84 ng/mL
same,CBD concentration in blood plasma,"individual dogs 1-4, 0.12 mg/kg CBD + 0.24 mg/kg THC oral once, 2 h",4.48 ng/mL and 8.08 ng/mL and 8.72 ng/mL
same,CBD concentration in blood plasma,"individual dogs 1-4, 0.12 mg/kg CBD + 0.24 mg/kg THC oral once, 3 h",2.83 ng/mL and 2.33 ng/mL and 5.83 ng/mL and 6.25 ng/mL
same,CBD concentration in blood plasma,"individual dogs 1-4, 0.12 mg/kg CBD + 0.24 mg/kg THC oral once, 4 h",1.95 ng/mL and 1.24 ng/mL and 4.08 ng/mL and 4.31 ng/mL
same,CBD concentration in blood plasma,"individual dogs 1-4, 0.12 mg/kg CBD + 0.24 mg/kg THC oral once, 6 h",1.56 ng/mL and 0.76 ng/mL and 2.99 ng/mL and 2.75 ng/mL
same,CBD concentration in blood plasma,"individual dogs 1-4, 0.12 mg/kg CBD + 0.24 mg/kg THC oral once, 8 h",1.12 ng/mL and 0.53 ng/mL and 1.23 ng/mL and 2.32 ng/mL
same,CBD concentration in blood plasma,"individual dogs 1-4, 0.12 mg/kg CBD + 0.24 mg/kg THC oral once, 12 h",0.48 ng/mL and 0.23 ng/mL and 0.37 ng/mL and 0.55 ng/mL
same,CBD concentration in blood plasma,"individual dogs 1-4, 0.12 mg/kg CBD + 0.24 mg/kg THC oral once, 16 h",0.00 ng/mL (2×) and 0.26 ng/mL and 0.36 ng/mL
same,CBD concentration in blood plasma,"individual dogs 1-4, 0.12 mg/kg CBD + 0.24 mg/kg THC oral once, 24 h",0.00 ng/mL and 0.23 ng/mL
same,CBD concentration in blood plasma,"individual dogs 5-8, 0.24 mg/kg CBD + 0.12 mg/kg THC oral once, 0 h",0 ng/mL
same,CBD concentration in blood plasma,"individual dogs 5-8, 0.24 mg/kg CBD + 0.12 mg/kg THC oral once, 0.67 h",28.70 ng/mL and 28.10 ng/mL and 10.20 ng/mL and 53.40 ng/mL
same,CBD concentration in blood plasma,"individual dogs 5-8, 0.24 mg/kg CBD + 0.12 mg/kg THC oral once, 1 h",35.20 ng/mL and 20.10 ng/mL and 18.90 ng/mL and 69.10 ng/mL
same,CBD concentration in blood plasma,"individual dogs 5-8, 0.24 mg/kg CBD + 0.12 mg/kg THC oral once, 1.5 h",33.20 ng/mL and 27.00 ng/mL and 12.70 ng/mL and 34.60 ng/mL
same,CBD concentration in blood plasma,"individual dogs 5-8, 0.24 mg/kg CBD + 0.12 mg/kg THC oral once, 2 h",14.90 ng/mL and 12.60 ng/mL and 20.30 ng/mL
same,CBD concentration in blood plasma,"individual dogs 5-8, 0.24 mg/kg CBD + 0.12 mg/kg THC oral once, 3 h",6.33 ng/mL and 6.79 ng/mL and 7.66 ng/mL
same,CBD concentration in blood plasma,"individual dogs 5-8, 0.24 mg/kg CBD + 0.12 mg/kg THC oral once, 4 h",4.07 ng/mL and 4.40 ng/mL and 4.36 ng/mL
same,CBD concentration in blood plasma,"individual dogs 5-8, 0.24 mg/kg CBD + 0.12 mg/kg THC oral once, 6 h",3.40 ng/mL and 2.22 ng/mL and 5.74 ng/mL and 1.87 ng/mL
same,CBD concentration in blood plasma,"individual dogs 5-8, 0.24 mg/kg CBD + 0.12 mg/kg THC oral once, 8 h",4.68 ng/mL and 1.23 ng/mL and 4.36 ng/mL and 0.91 ng/mL
same,CBD concentration in blood plasma,"individual dogs 5-8, 0.24 mg/kg CBD + 0.12 mg/kg THC oral once, 12 h",0.63 ng/mL and 0.85 ng/mL and 0.72 ng/mL
same,CBD concentration in blood plasma,"individual dogs 5-8, 0.24 mg/kg CBD + 0.12 mg/kg THC oral once, 16 h",0.49 ng/mL and 0.65 ng/mL and 0.47 ng/mL
same,CBD concentration in blood plasma,"individual dogs 5-8, 0.24 mg/kg CBD + 0.12 mg/kg THC oral once, 24 h",0.28 ng/mL (2×) and 0.46 ng/mL
same,CBD concentration in blood plasma,"individual dogs 5-8, 0.24 mg/kg CBD + 0.12 mg/kg THC oral once, 32 h",0.39 ng/mL (2×) and 0.32 ng/mL
same,CBD concentration in blood plasma,"individual dogs 5-8, 0.24 mg/kg CBD + 0.12 mg/kg THC oral once, 48 h",0.00 ng/mL (2×) and 0.22 ng/mL and 0.31 ng/mL
same,CBD concentration in blood plasma,"individual dogs 5-8, 0.24 mg/kg CBD + 0.12 mg/kg THC oral once, 72 h",0.00 ng/mL
same,CBD in the subject's blood,up to 72 h after administration,detectable
